PubChem BioAssay (NCI)
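Test compounds were applied to cells in 96-well plates for 48 hours at 5 doses. GI50 is the concentration that inhibits growth by half. TGI: total growth inhibition.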

Assays:
Assay in all cases: NCI-60 cell line screen, 48 h
A498 renal = test system: A498 renal
LOX IMVI melanoma = test system: LOX IMVI melanoma
NCI-H460 lung = test system: NCI-H460 lung
OVCAR-8 ovarian = test system: OVCAR-8 ovarian
SF-539 CNS = test system: SF-539 CNS
U251 CNS = test system: U251 CNS
UACC-62 melanoma = test system: UACC-62 melanoma
UO-31 renal = test system: UO-31 renal
HS 578T breast = test system: HS 578T breast
MDA-MB-435 = test system: MDA-MB-435

Row | SMILES | TGI (A498 renal) | TGI (LOX IMVI melanoma) | TGI (NCI-H460 lung) | TGI (OVCAR-8 ovarian) | TGI (SF-539 CNS) | TGI (U251 CNS) | TGI (UACC-62 melanoma) | TGI (UO-31 renal) | GI50 (A498 renal) | GI50 (HS 578T breast) | TGI (HS 578T breast) | GI50 (LOX IMVI melanoma) | GI50 (NCI-H460 lung) | GI50 (OVCAR-8 ovarian) | GI50 (SF-539 CNS) | GI50 (U251 CNS) | GI50 (UACC-62 melanoma) | GI50 (UO-31 renal) | TGI (MDA-MB-435) [µM] | GI50 (MDA-MB-435) [µM]
1 | O=[N+]([O-])c1ccccc1C=NC12CC3CC(CC(C3)C1)C2 | > 100 µM | > 100 µM | > 100 µM | > 100 µM | > 100 µM | > 100 µM | > 100 µM | > 100 µM |  |  |  |  |  |  |  |  |  |  |  | 
2 | C=C(CC(=O)O)C(=O)O (tested in a mixture with another compound) | > 50 mg/L | > 50 mg/L | > 50 mg/L | > 50 mg/L | > 50 mg/L | > 50 mg/L | > 50 mg/L | > 50 mg/L | > 50 mg/L | > 50 mg/L | > 50 mg/L | > 50 mg/L | > 50 mg/L | > 50 mg/L | > 50 mg/L | > 50 mg/L | > 50 mg/L | > 50 mg/L |  | 
3 | CCCCN(CCCC)CCC(O)c1cc2c(Cl)cc(Cl)cc2c2cc(C(F)(F)F)ccc12 (stereo not drawn) | 13.8 µM | 21.9 µM | 25.5 µM | 27.5 µM | 30.1 µM | 31.7 µM | 29.9 µM | 17.4 µM |  |  |  |  |  |  |  |  |  |  | 28.7 | 
4 | O=C1Nc2ccccc2/C1=C\c1nc(C2CCN(S(=O)(=O)c3ccc(F)cc3)CC2)n2ccccc12 | > 100 µM | > 100 µM | > 100 µM | 6.77 µM | 3.07 µM | 11.4 µM |  |  | 17.1 µM | 1.22 µM | 5.78 µM | 2.58 µM | 9.97 µM | 1.39 µM | 1.39 µM | 2.53 µM |  |  |  | 
5 | C/C=C/[C@H]1O[C@@H]2C(=C[C@H]1O)C(=O)O[C@H]2C |  | 31.5 µM | > 100 µM | > 56.8 µM | 3.38 µM | 36.8 µM | 33.5 µM | > 54.4 µM |  | 23.3 µM | 49.8 µM | 15 µM | > 92 µM | 24.8 µM |  | 18.4 µM | 17.6 µM | 7.51 µM | 43.5 | 21.9
6 | Oc1cccc(/C=N/Nc2nnc(N/N=C/c3cccc(O)c3)c3ccccc23)c1 |  | 34.1 µM | > 100 µM | 18.1 µM | 34.6 µM | 29.6 µM | 30.2 µM | 52 µM |  |  | 52.9 µM |  |  |  |  |  |  |  | 81 | 
7 | CCCCCCCCCCCCCCCC(=O)OCC1OC(OC)C2NP(=O)(N(CCCl)CCCl)OC1C2O (stereo not drawn) | 34.7 µM | 6.58 µM | 14.5 µM | 13.5 µM | 7.29 µM | > 19.5 µM | 8.71 µM | 35.1 µM |  |  |  |  |  |  |  |  |  |  | 21.7 | 
8 | CCCCN[C@H]1C2C3CC4C5CC(C42)C1(C)C53 (stereo partly drawn) | > 100 µM | > 100 µM | > 100 µM |  | > 100 µM | > 100 µM | > 100 µM | > 100 µM |  |  |  |  |  |  |  |  |  |  |  | 
9 | COc1ccc(/C=c2/sc3n(c2=O)NC2(CCC(C)CC2)NN=3)cc1 (stereo not drawn) |  | > 100 µM | > 100 µM | > 100 µM | > 100 µM | > 100 µM | > 100 µM | > 100 µM |  |  |  |  |  |  |  |  |  |  |  | 
